Data taken from US20110218103A1, “Fluoroalkyl-substituted 2-amidobenzimidazoles” (BAYER CROPSCIENCE AG, priority 2010, published 2011).

Experiments:
Zea mays (ZEAMX) [1] = experiment: Drought stress test on crop plants, spray application in greenhouse, visual damage rating; assay type: in vivo; settings: 25 g/ha, mean of three results
Procedure: Seeds of monocotyledonous and dicotyledonous crop plants were placed in sandy loam in wood-fiber pots, covered with soil and cultivated in a greenhouse under good growth conditions. The test plants were treated at the early leaf stage (BBCH10-BBCH13). To ensure uniform water supply before commencement of stress, the potted plants were supplied with the maximum amount of water immediately beforehand by dam irrigation and, after application, transferred in plastic inserts in order to prevent subsequent, excessively rapid drying. The inventive compounds, formulated in the form of wettable powders (WP), wettable granules (WG), suspension concentrates (SC) or emulsion concentrates (EC), were sprayed onto the green parts of the plants as an aqueous suspension at an equivalent water application rate of 600 l/ha with addition of 0.2% wetting agent (agrotin). Substance application was followed immediately by stress treatment of the plants (cold or drought stress). For cold stress treatment, the plants were kept under the following controlled conditions: Drought stress was induced by gradual drying out under the following conditions: “day”: 14 hours with illumination at 26° C. “night”: 10 hours without illumination at 18° C. The duration of the respective stress phases was guided mainly by the state of the untreated, stressed control plants and thus varies from crop to crop. It was ended (by re-irrigating or transfer to a greenhouse with good growth conditions) as soon as irreversible damage is observed on the untreated, stressed control plants. In the case of dicotyledonous crops, for example oilseed rape and soya, the duration of the drought stress phase was between 3 and 5 days, in the case of monocotyledonous crops, for example wheat, barley or corn, between 6 and 10 days. The duration of the cold stress phase varied between 12 and 14 days. The end of the stress phase was followed by an approx. 5-7-day recovery phase, during which the plants were once again kept under good growth conditions in a greenhouse. In order to rule out any influence of the effects observed by any fungicidal action of the test compounds, it was additionally ensured that the tests proceed without fungal infection and without infection pressure. After the recovery phase had ended, the intensities of damage were rated visually compared to untreated, unstressed controls of the same age (in the case of drought stress) or the same growth stage (in the case of cold stress). The intensity of damage was first assessed as a percentage (100%=plants have died, 0%=like control plants). These values were then used to calculate the efficacy of the test compounds (=percentage reduction in the intensity of damage as a result of substance application) by the following formula: [formula] EF: efficacy (%) DVus: damage value of the untreated, stressed control DVts: damage value of the plants treated with test compound The tables below list mean values in each case from three results of the same test. Effects of selected compounds of the formula (I) under drought stress: ZEAMX=Zea mays

Zea mays (ZEAMX) [2] = experiment: Cold stress test on crop plants, spray application in greenhouse, visual damage rating; assay type: in vivo; settings: mean of three results
Procedure: Seeds of monocotyledonous and dicotyledonous crop plants were placed in sandy loam in wood-fiber pots, covered with soil and cultivated in a greenhouse under good growth conditions. The test plants were treated at the early leaf stage (BBCH10-BBCH13). To ensure uniform water supply before commencement of stress, the potted plants were supplied with the maximum amount of water immediately beforehand by dam irrigation and, after application, transferred in plastic inserts in order to prevent subsequent, excessively rapid drying. The inventive compounds, formulated in the form of wettable powders (WP), wettable granules (WG), suspension concentrates (SC) or emulsion concentrates (EC), were sprayed onto the green parts of the plants as an aqueous suspension at an equivalent water application rate of 600 l/ha with addition of 0.2% wetting agent (agrotin). Substance application was followed immediately by stress treatment of the plants (cold or drought stress). For cold stress treatment, the plants were kept under the following controlled conditions: “day”: 12 hours with illumination at 8° C. “night”: 12 hours without illumination at 1° C. The duration of the respective stress phases was guided mainly by the state of the untreated, stressed control plants and thus varies from crop to crop. It was ended (by re-irrigating or transfer to a greenhouse with good growth conditions) as soon as irreversible damage is observed on the untreated, stressed control plants. In the case of dicotyledonous crops, for example oilseed rape and soya, the duration of the drought stress phase was between 3 and 5 days, in the case of monocotyledonous crops, for example wheat, barley or corn, between 6 and 10 days. The duration of the cold stress phase varied between 12 and 14 days. The end of the stress phase was followed by an approx. 5-7-day recovery phase, during which the plants were once again kept under good growth conditions in a greenhouse. […] The intensity of damage was first assessed as a percentage (100%=plants have died, 0%=like control plants). […]

With `NC(=O)c1cccc2[nH]c(C(F)(F)C(F)(F)C(F)(F)F)nc12` [1-17] the “EF (ZEAMX), efficacy = percentage reduction in the intensity of damage” value (Zea mays (ZEAMX) [1]) was >5% and the “EF (ZEAMX), efficacy = percentage reduction in the intensity of damage” value (Zea mays (ZEAMX) [2]; 25 g/ha) was >5%.

With `NC(=O)c1cccc2[nH]c(C(F)(F)C(F)(F)F)nc12` [1-2, 2-(pentafluoroethyl)-1H-benzimidazole-4-carboxamide] the “EF (ZEAMX), efficacy = percentage reduction in the intensity of damage” value (Zea mays (ZEAMX) [1]) was >5% and the “EF (ZEAMX), efficacy = percentage reduction in the intensity of damage” value (Zea mays (ZEAMX) [2]; 5 g/ha) was >5%.
